The values that follow come from patent US9120820B2, “Fluorescent molecular probes for use in assays that measure test compound competitive binding with SAM-utilizing proteins” (CAYMAN CHEMICAL COMPANY, INCORPORATED, priority 2011, dated 2015).

Molecules are shown by their SMILES.

The target of the assay is T1, PRDM9 (Homo sapiens, UniProt Q9NQV7).
T1 construct: purchased Cayman
Briefly: Fluorescence polarization saturation binding of fluorescent probe to PRDM9. Particulars: saturation-binding format, mean ± SEM, read-out: Sinefungin Probe 1A Affinity. As for the experimental part: Sinefungin Probe 1A was tested for the ability to bind to 16 proteins, including several non-methlytransferase protein controls (Table 2). This probe binds to 4 methyltransferases (SET7/9, G9a, GLP, MLL) with Kd values <2 μM.

T1 sequence (Q9NQV7 whole entry, species assumed): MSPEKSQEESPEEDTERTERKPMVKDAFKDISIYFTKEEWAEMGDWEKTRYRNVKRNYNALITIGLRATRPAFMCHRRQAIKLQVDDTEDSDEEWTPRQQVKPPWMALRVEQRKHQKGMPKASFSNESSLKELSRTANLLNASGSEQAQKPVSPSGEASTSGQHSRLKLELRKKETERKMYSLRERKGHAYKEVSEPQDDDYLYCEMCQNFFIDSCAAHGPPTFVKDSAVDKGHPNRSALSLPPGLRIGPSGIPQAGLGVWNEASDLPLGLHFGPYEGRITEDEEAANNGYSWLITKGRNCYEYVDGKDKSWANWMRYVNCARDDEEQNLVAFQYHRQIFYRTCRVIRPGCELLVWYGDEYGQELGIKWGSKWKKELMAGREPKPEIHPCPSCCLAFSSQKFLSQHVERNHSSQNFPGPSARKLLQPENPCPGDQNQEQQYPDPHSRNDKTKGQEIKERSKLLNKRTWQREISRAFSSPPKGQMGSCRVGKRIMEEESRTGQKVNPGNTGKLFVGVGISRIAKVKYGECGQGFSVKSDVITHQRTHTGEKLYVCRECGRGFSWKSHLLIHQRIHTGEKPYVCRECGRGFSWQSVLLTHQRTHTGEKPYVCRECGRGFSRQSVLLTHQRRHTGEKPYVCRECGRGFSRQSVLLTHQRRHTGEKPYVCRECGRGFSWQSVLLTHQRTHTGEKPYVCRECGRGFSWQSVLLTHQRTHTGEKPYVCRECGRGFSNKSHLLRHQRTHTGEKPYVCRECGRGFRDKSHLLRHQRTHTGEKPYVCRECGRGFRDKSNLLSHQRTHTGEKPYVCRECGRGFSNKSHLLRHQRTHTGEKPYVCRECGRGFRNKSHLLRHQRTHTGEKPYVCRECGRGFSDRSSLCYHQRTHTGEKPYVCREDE

As to `Nc1ncnc2c1ncn2[C@@H]1O[C@H](C[C@@H](N)CC[C@H](N)C(=O)O)[C@@H](OCc2cnnn2CCCCCCNC(=O)OC2CCN(C(=O)c3ccccc3C3=c4cc5c6c(c4Oc4c3cc3c7c4CCCN7CCC3)CCC[N+]=6CCC5)CC2)[C@H]1O` [Sinefungin Probe 1A], the Kd stood at 2.6 ± 0.6 µM.
